Experimental data published in ChEMBL document CHEMBL1135882, “Synthesis and biological evaluation of 2-substituted 3beta-tolyltropane derivatives at dopamine, serotonin, and norepinephrine transporters” (J Med Chem, 2002).

Experiments:
[1] = species on record: Rattus norvegicus; test: Ability to inhibit [3H]dopamine uptake was measured in a chopped tissue assay; assay type: functional, organism-based
[2] = target: Sodium-dependent dopamine transporter (Rattus norvegicus, UniProt P23977); test: Affinity for dopamine transporter was assessed by the ability to displace [3H]WIN-35428 from rat caudate-putamen tissue; assay type: tissue-based
[3] = system: Rattus norvegicus; test: Percent maximum effect at 89.3 mmol/kg dose that causes compound-appropriate response in rats, trained to discriminate cocaine; assay type: functional
[4] = target: Norepinephrine transporter (Rattus norvegicus, UniProt Q9WTR4); test: Binding affinity for Norepinephrine transporter is assessed from the ability to displace [3H]nisoxetine from rat frontal cortex; assay type: tissue-based
[5] = species on record: Rattus norvegicus; test: Effective dose that causes 50 percent of compound-appropriate response in rats, trained to discriminate cocaine; Value ranges from (17.1-1.22)x10E5, effect is nonsignificant at this dose; assay type: functional
[6] = system: Rattus norvegicus; test: Percent maximum effect at 45.7 mmol/kg dose that causes compound-appropriate response in rats, trained to discriminate cocaine; assay type: functional
[7] = target: Sodium-dependent serotonin transporter (Rattus norvegicus, UniProt P31652); test: Binding affinity for serotonin transporter is assessed from the ability to displace [3H]citalopram from rat brain.
[8] = species on record: Rattus norvegicus; test: Effective dose that causes 50 percent of compound-appropriate response in rats, trained to discriminate cocaine; Value ranges from (9.07-256), effect is nonsignificant at this dose; assay type: functional
[9] = species on record: Rattus norvegicus; test: Effective dose that causes 50 percent of compound-appropriate response in rats, trained to discriminate cocaine; NS means Nonsignificant linear regression.; assay type: functional, organism-based
[10] = system: Rattus norvegicus; test: Percent maximum effect at 2.69 mmol/kg dose that causes compound-appropriate response in rats, trained to discriminate cocaine; assay type: functional
[11] = system: Rattus norvegicus; test: Percent maximum effect at 27.0 mmol/kg dose that causes compound-appropriate response in rats, trained to discriminate cocaine; assay type: functional
[12] = system: Rattus norvegicus; test: Percent maximum effect at 39.0 mmol/kg dose that causes compound-appropriate response in rats, trained to discriminate cocaine; assay type: functional
[13] = system: Rattus norvegicus; test: Percent maximum effect at 54.9 mmol/kg dose that causes compound-appropriate response in rats, trained to discriminate cocaine; assay type: functional
[14] = species on record: Rattus norvegicus; test: Effective dose that causes 50 percent of compound-appropriate response in rats, trained to discriminate cocaine; Value ranges from (22-51.4), effect is nonsignificant at this dose; assay type: functional
[15] = system: Rattus norvegicus; test: Percent maximum effect at 37.7 mmol/kg dose that causes compound-appropriate response in rats, trained to discriminate cocaine; assay type: functional

Chain of Sodium-dependent dopamine transporter (P23977 whole entry): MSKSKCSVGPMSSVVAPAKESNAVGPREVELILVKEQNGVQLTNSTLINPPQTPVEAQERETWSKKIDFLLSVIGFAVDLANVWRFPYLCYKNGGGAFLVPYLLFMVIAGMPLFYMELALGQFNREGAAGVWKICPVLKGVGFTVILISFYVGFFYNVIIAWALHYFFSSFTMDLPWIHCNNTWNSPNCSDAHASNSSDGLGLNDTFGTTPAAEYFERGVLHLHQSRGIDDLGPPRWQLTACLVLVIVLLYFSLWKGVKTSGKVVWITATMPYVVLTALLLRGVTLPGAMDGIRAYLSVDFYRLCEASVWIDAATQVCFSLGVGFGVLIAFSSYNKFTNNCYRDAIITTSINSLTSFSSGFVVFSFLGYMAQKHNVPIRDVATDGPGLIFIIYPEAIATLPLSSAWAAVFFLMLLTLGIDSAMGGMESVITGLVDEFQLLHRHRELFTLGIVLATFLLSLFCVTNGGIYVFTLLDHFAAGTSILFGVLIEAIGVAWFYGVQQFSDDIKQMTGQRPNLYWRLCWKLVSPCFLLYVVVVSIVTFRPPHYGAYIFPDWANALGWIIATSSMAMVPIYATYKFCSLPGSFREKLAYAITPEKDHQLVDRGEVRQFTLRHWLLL
Chain of Sodium-dependent serotonin transporter (P31652 whole entry): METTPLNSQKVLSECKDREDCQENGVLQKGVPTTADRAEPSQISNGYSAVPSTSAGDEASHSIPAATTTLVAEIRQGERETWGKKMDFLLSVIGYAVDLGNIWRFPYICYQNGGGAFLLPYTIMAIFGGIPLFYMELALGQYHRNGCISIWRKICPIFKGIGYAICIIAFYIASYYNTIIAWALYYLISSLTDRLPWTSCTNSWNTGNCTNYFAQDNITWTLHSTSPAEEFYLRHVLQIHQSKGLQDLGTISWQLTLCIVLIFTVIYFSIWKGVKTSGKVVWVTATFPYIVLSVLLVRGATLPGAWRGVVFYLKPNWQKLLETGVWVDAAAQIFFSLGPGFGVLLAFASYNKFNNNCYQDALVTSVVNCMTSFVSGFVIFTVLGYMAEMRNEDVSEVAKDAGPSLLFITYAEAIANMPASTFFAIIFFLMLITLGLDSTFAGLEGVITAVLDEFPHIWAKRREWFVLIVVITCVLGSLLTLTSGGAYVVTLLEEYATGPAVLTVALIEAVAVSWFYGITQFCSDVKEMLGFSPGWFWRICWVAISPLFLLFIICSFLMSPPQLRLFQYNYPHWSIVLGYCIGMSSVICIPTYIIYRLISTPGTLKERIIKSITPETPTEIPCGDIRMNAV
Chain of Norepinephrine transporter (Q9WTR4 whole entry): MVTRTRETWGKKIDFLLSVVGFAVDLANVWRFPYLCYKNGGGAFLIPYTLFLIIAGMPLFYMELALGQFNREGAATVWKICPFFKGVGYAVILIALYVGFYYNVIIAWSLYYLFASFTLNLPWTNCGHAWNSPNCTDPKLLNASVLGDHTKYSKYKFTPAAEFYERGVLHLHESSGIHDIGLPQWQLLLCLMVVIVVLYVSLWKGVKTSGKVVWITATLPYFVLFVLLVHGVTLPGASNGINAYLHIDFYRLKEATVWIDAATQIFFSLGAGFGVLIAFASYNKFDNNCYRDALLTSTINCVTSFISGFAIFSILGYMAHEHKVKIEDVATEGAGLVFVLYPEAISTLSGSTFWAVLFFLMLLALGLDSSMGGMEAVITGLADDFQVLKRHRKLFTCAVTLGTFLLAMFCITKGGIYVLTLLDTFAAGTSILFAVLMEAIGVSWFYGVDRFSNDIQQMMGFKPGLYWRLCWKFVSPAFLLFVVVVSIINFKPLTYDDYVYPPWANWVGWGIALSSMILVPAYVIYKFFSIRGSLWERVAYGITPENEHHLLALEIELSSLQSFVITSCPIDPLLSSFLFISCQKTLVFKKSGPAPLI

| SMILES | IC50 [1] | Ki [2] | Ki [4] | Ki [7] | also measured |
| --- | --- | --- | --- | --- | --- |
| Cc1ccc([C@H]2C[C@H]3CC[C@H]([C@@H]2[C@@H](O)c2ccc(C)cc2)N3C)cc1 | 58 nM | 25 nM |  |  |  |
| COC(=O)/C=C/C1C(c2ccc(C)cc2)C[C@H]2CCC1N2C (some centres undefined) | 311 nM | 123 nM |  |  | Max effect [3]: 69.9% |
| Cc1ccc([C@H]2C[C@H]3CC[C@H]([C@H]2[C@@H](O)c2ccc(C)cc2)N3C)cc1 | 144 nM | 14 nM | 464 nM | 66 nM | ED50 [5]: 61600 µmol/kg; Max effect [6]: 97.9% |
| Cc1ccc(C2C[C@H]3CCC([C@@H]2CO)N3C)cc1 (some centres undefined) | 4040 nM | 3490 nM | 16800 nM | 16000 nM | ED50 [8]: 20600 µmol/kg; NS [9]: Nonsignificant linear regression; Max effect [10]: 2.96% |
| Cc1ccc(C(=O)C2C(c3ccc(C)cc3)CC3CCC2N3C)cc1 (centres undefined) | 82 nM | 17 nM |  |  | Max effect [11]: 100% |
| Cc1ccc(CC2C(c3ccc(C)cc3)C[C@H]3CCC2N3C)cc1 (some centres undefined) | 16 nM | 11 nM | 271 nM |  | Max effect [12]: 82.8% |
| Cc1ccc(C2C[C@H]3CCC(C2CCCO)N3C)cc1 (some centres undefined) | 266 nM | 136 nM |  |  | Max effect [13]: 93.9% |
| Cc1ccc([C@@H](O)[C@@H]2C3CC[C@H](C[C@@H]2c2ccc(C)cc2)N3C)cc1 | 107 nM | 85 nM | 214 nM | 70 nM | ED50 [14]: 31400 µmol/kg; Max effect [15]: 66.7% |
